Test results from US4490291A, “Nonapeptide amides” (Takeda Chemical Industries, Ltd., priority 1973, dated 1984).
Non-standard residues stand in square brackets, D forms with d. Residues, ends and D or L forms follow the SMILES beside them. pGlu = O=C1CC[C@@H](C(=O)O)N1

The molecules below were run on Sprague-Dawley rats (4-day cycling female) (assay: Ovulation-inducing activity in rats, ED50 compared with LH-RH). Settings: product of process (III) compared with product of process (I) of Example 5(c).
Format: in vivo
Description: Ovulation-inducing activity is determined in Sprague-Dawley rats (4-day cycling female) in which the injection of the compound was made subcutaneously at 14:30 on the day of diestrous, and the ovulated ova in the ampilla of the oviduct were examined on the morning of the next day. The results (ED50) were compared with that (ED50) of LH-RH itself. The assay results on the object compounds are as follows.

Molecule	ED50 value of ovulation inducing activity
CCNC(=O)[C@@H]1CCCN1C(=O)[C@H](CCCNC(=N)N)NC(=O)[C@H](CC(C)C)NC(=O)[C@@H](C)NC(=O)[C@H](Cc1ccccc1)NC(=O)[C@H](CO)NC(=O)[C@H](Cc1c[nH]c2ccccc12)NC(=O)[C@H](Cc1c[nH]cn1)NC(=O)[C@@H]1CCC(=O)N1 [His Phe Leu ethyl, (Pyr)Glu--His--Trp--Ser--Phe--(D)--Ala--Leu--Arg--Pro--NH--CH2 --CH3] ([pGlu]HWSF[dA]LRP-NHEt)	identical

Same assay, conditions: subcutaneous injection at 14:30 on the day of diestrous; ovulated ova in oviduct examined next morning; natural LH-RH control = 100%

Molecule	Relative ovulation-inducing activity (ED50 compared with that of LH-RH itself)
CCNC(=O)[C@@H]1CCCN1C(=O)[C@H](CCCNC(=N)N)NC(=O)[C@@H](NC(=O)[C@@H](C)NC(=O)[C@H](Cc1ccccc1)NC(=O)[C@H](CO)NC(=O)[C@H](Cc1c[nH]c2ccccc12)NC(=O)[C@H](Cc1c[nH]cn1)NC(=O)[C@@H]1CCC(=O)N1)[C@@H](C)CC [His Phe Ile ethyl, (Pyr)Glu--His--Trp--Ser--Phe--(D)--Ala--Ile--Arg--Pro--NHCH2 CH3] ([pGlu]HWSF[dA]IRP-NHEt)	3,200%
CCNC(=O)[C@@H]1CCCN1C(=O)[C@H](CCCNC(=N)N)NC(=O)[C@H](CC(C)C)NC(=O)[C@@H](C)NC(=O)[C@H](Cc1ccccc1)NC(=O)[C@H](CO)NC(=O)[C@H](Cc1c[nH]c2ccccc12)NC(=O)[C@H](Cc1c[nH]cn1)NC(=O)[C@@H]1CCC(=O)N1 [His Phe Leu ethyl, (Pyr)Glu--His--Trp--Ser--Phe--(D)--Ala--Leu--Arg--Pro--NH--CH2 --CH3] ([pGlu]HWSF[dA]LRP-NHEt)	5,810%
CCNC(=O)[C@@H]1CCCN1C(=O)[C@H](CCCNC(=N)N)NC(=O)[C@H](CC(C)C)NC(=O)[C@@H](C)NC(=O)[C@H](Cc1ccc(O)cc1)NC(=O)[C@H](CO)NC(=O)[C@H](Cc1c[nH]c2ccccc12)NC(=O)[C@H](Cc1c[nH]cn1)NC(=O)[C@@H]1CCC(=O)N1 [His Tyr Leu ethyl, (Pyr)Glu--His--Trp--Ser--Tyr--(D)--Ala--Leu--Arg--Pro--NH--CH2 --CH3]	6,100%
CCCC[C@H](NC(=O)[C@@H](C)NC(=O)[C@H](Cc1ccc(O)cc1)NC(=O)[C@H](CO)NC(=O)[C@H](Cc1c[nH]c2ccccc12)NC(=O)[C@H](Cc1c[nH]cn1)NC(=O)[C@@H]1CCC(=O)N1)C(=O)N[C@@H](CCCNC(=N)N)C(=O)N1CCC[C@H]1C(=O)NCC [His Tyr Nle ethyl, (Pyr)Glu--His--Trp--Ser--Tyr--(D)--Ala--Nle--Arg--Pro--NHCH2 CH3]	4,800%
CCNC(=O)[C@@H]1CCCN1C(=O)[C@H](CCCNC(=N)N)NC(=O)[C@H](CC(C)C)NC(=O)[C@@H](C)NC(=O)[C@H](Cc1ccc(O)cc1)NC(=O)[C@H](CO)NC(=O)[C@H](Cc1c[nH]c2ccccc12)NC(=O)[C@H](Cc1ccc(O)cc1)NC(=O)[C@@H]1CCC(=O)N1 [Tyr Tyr Leu ethyl, (Pyr)Glu--Tyr--Trp--Ser--Tyr--(D)--Ala--Leu--Arg--Pro--NHCH2 CH3] ([pGlu]YWSY[dA]LRP-NHEt)	2,010%
CC(C)C[C@H](NC(=O)CNC(=O)[C@H](Cc1ccc(O)cc1)NC(=O)[C@H](CO)NC(=O)[C@H](Cc1c[nH]c2ccccc12)NC(=O)[C@H](Cc1c[nH]cn1)NC(=O)[C@@H]1CCC(=O)N1)C(=O)N[C@@H](CCCNC(=N)N)C(=O)N1CCC[C@H]1C(=O)NCC(N)=O [natural LH--RH, (Pyr)Glu-His-Trp-Ser-Tyr-Gly-Leu-Arg-Pro-Gly-NH2, reference compound]	100%
(Pyr)Glu--p--NH2 --Phe--Trp--Ser--Tyr--(D)--Ala--Leu--Arg--Pro--NH--CH2 --CH3 [p-NH2 --Phe Tyr Leu ethyl]	2,150%
